Assay results from US10336724B2, “D-amino acid oxidase inhibitors and therapeutic uses thereof” (SyneuRx International (Taiwan) Corp., priority 2017, dated 2019).
“Also recorded” adds a separate entry of the source.

How the values were obtained:
[1] = test system: MK801-treated mice; test: Open field task, MK801-induced hyper-locomotion; type: in vivo; conditions: Example 1 446 or 892 mg/kg orally 20 min prior to MK801 0.1 mg/kg i.p.; 120 minutes testing period
Method: (§1) The mice were placed in a Plexiglas cage (37.5 cm×21.5 cm×18 cm) under 50-65 lux light intensity, the spontaneous locomotion was measured for 120 minutes using the EthoVision video tracking system (Noldus Information Technology, the Netherlands). The travel distance of each mouse was measured as an index of spontaneous locomotion.
(§2) The mice were group housed (3-5 mice per cage) with food and water available ad libitum in polysulfone ventilated cages (Alternative Design, AR, USA) in the animal rooms of the SyneuRx International (Taiwan) Corp. The colony was maintained on a 12/12-hr light/dark cycle at the temperature of 22±2° C. and all behavioral studies were performed during dark cycle. All animals used in this study were adult mice (at least 2.5 months of age). All animal procedures were performed according to the protocols approved by the Institutional Animal Care and Use Committee (IACUC). […]
(§3) All mice in the experiments were tested by open field task and pre-pulse inhibition with at least 1-week interval between two tasks. […] The percentage of pre-pulse inhibition was calculated by the following formula: % PPI=100×[(PA score)−(pp-P score)]/(PA score), where the PA score was the average of the PA value in the middle blocks. […]

[2] = test system: MK801-treated mice; test: Pre-pulse inhibition (PPI) test, MK801-induced deficit of sensorimotor gating; type: in vivo; conditions: Example 1 446 or 892 mg/kg orally 20 min prior to MK801 0.2 mg/kg i.p.; each pre-pulse intensity
Method: as §2, with “(IACUC). The mice were randomly assigned into four groups, Group 1: vehicle control, Group 2: MK801, Group 3: Example 1 at 446 mg/kg+MK801, Group 4: Example 1 at 892 mg/kg+MK801.” for “(IACUC).”
as §3

[3] = target: hDAAO (human DAAO) (Homo sapiens (Human), UniProt P14920); test: hDAAO (human DAAO) activity, D-serine substrate, Amplex Red fluorescence; type: biochemical
Chain of hDAAO (human DAAO) (P14920 whole entry): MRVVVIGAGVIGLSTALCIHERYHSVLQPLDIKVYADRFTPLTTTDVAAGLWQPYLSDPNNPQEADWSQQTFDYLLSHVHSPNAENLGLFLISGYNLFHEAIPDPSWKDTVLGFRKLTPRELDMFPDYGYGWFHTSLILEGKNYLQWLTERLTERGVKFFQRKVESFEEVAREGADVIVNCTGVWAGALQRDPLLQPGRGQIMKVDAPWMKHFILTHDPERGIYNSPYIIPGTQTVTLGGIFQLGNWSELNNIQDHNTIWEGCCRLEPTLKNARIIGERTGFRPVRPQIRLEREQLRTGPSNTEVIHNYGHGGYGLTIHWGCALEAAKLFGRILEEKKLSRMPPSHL
Method: The hDAAO (human DAAO) activity was measured by using D-serine as a substrate to produce H2O2. The produced H2O2 would be oxidized by peroxidase, and the produced free radicals would further react with Amplex Red reagent to emit fluorescence. The intensity of fluorescence at 590 nm would be measured to represent the activity of hDAAO. All compounds were dissolved in DMSO. Each compound was diluted with DMSO in 3-fold serial dilution to create a 9-point dose response curve. Each sample was added in triplicate, 1 μL/well, into 96-well black plates. Positive control wells were added with 1 μL of DMSO. Then 49 μL of assay buffer (100 mM Tris-HCl, pH 8.5) containing 1.2 ng/mL hDAAO, 900 nM FAD, 0.2 units/mL HRP, and 100 μM Amplex Red was added to each well of the plate using a multichannel pipette. Next, 50 μL of 100 mM D-Serine in assay buffer was added. The reaction plates were then incubated in the dark at room temperature. The fluorescence readout was detected at 0 and 20 minute by Molecular Device Gemini EM fluorescence reader using the following settings: excitation filter 530 nm, and emission filter 590 nm. The percentage of inhibition values for each well was calculated with the following equation: The percentage of inhibition=(fluorescencesample, 20 min−fluorescencesample, 0 min)/(fluorescenceDMSO, 20 min−fluorescenceDMSO, 0 min)×100%
The nonlinear curve fitting model in GraphPad Prism 5 was used to calculate IC50 value for each compound.

[4] = test system: mice; test: Spontaneous locomotion in open field; type: in vivo; conditions: oral, 446 and 892 mg/kg, 120 minutes observation
Method: The mice were group housed (3-5 mice per cage) with food and water available ad libitum in polysulfone ventilated cages (Alternative Design, AR, USA) in the animal rooms of SyneuRx International (Taiwan) Corp. The colony was maintained on a 12/12-hr light/dark cycle at the temperature of 22±2° C. and all behavioral studies were performed during the dark cycle. All animals used in this study were adult mice (at least 2.5 months of age). All animal procedures were performed according to the protocols approved by Institutional Animal Care and Use Committee (IACUC).
The compound of Example 1 was placed into 100% PEG400, and was sonic vibrated until solution became clear. […]
Mice that received oral administration of either vehicle or low/high dose of the compound of Example 1 was immediately subjected to open field test and the index of spontaneous locomotion was expressed as total travel distance measured within the defined time frame.
as §1

Compound | locomotion activity in open field task compared to control group [1] | percentage of pre-pulse inhibition compared to control group [2] | IC50 [3] | spontaneous locomotion (total travel distance) versus vehicle [4]
C[C@]12N[C@H](Cc3ccccc31)c1ccccc12 [MK801, reference compound] | displayed hyper-locomotion | lower percentage of pre-pulse inhibition | – | –
O=C(Oc1coc(CO)cc1=O)c1ccc[nH]1 [Compound 1, 6-(hydroxymethyl)-4-oxo-4H-pyran-3-yl 1H-pyrrole-2-carboxylate] | equal level of locomotion activity as mice in the control group; also recorded: reversed/protected MK801-induced hyper-locomotion activity | the same level of pre-pulse inhibition percentage; also recorded: rescued/protected the MK801-induced PPI deficits | 100 to 500 µM | no significant difference between groups
